Experimental data published in patent US6545028B2, “Chemical compounds having ion channel blocking activity for the treatment of immune dysfunction” (NeuroSearch A/S, priority 1997, dated 2003).

What was measured:
T cells = test: Inhibition of antigen induced T cell proliferation ([^3H]thymidine incorporation); assay type: cell-based; conditions: Antigen (crude Candida albicans extract, 10 μg/ml), 144 hours culture
Description: The chemical compounds used according to the invention prevent immunological proliferation by selective inhibition of the Ca^2+-activated K-channels in T- and B-lymphocytes. This effect may be verified using various proliferation assays. In this experiment the proliferative assay described by Ødum et al. [Ødum N, Kanner S B, Ledbetter J A, & Svejgaard A; J. Immunol. 1993 150 (12) 5289-5298] was used.
Assays were performed in culture medium (RPMI 1640; available from Gibco, Grand island, N.Y.) supplemented with 10% pooled human serum, 2 mM L-glutamine, 100 μg/ml penicillin, and 100 μg/ml streptomycin (available from Novo Nordisk, Copenhagen, Denmark) in 96-well round bottom tissue culture plates (available from Nunc, Roskilde, Denmark) with a final volume of 200 μl.
T cells were preincubated for three hours with the test compounds before addition of antigen (crude Candida albicans extract, 10 μg/ml). T cells were cultured at 5×10^4 cells/well for 144 hours. Twelve hours before harvest, [^3H]thymidine ([…]) was added. The cells were harvested onto glass fibre filters, and the [^3H]thymidine incorporation was measured in a scintillation counter. The results were expressed as mean counts per minute (cpm) from triplicate cultures.

[1] = biological target: human placenta Ca^2+-activated, intermediate conductance potassium channel protein (IKCa) (Homo sapiens, UniProt O15554); test: Whole cell patch clamp on HEK293 or CHO cells transfected with the human IKCa channel; assay type: cell-based; conditions: 1 μM Clotrimazole added to the bath solution; reversed by washout
Description: HEK293 or CHO tissue culture cells were grown in DMEM (Dulbecco's Modified Eagle Medium) supplemented with 10% FCS (foetal calf serum) at 37° C. in 5% CO2. One day prior to transfection, 10^6 cells were plated in a cell culture T25 flask. The following day, cells were transfected using lipofection (20 μL Lipofectamin™, Life Technologies, with 2.5 μg of the plasmid pNS2Z_hIK2 in a total volume of 540 μL). The lipofection mixture was overlaid on the cells and incubated at 37° C. for 5 hours.
The cells were then rinsed with regular media and plated to a 30 mm culture dish. 18-48 hours after, transfected cells were assayed for the presence of Ca^2+-activated, intermediate conductance potassium channel protein by electrophysiological measurements.
Whole cell currents were recorded using a pipette solution of 144 mM KCl, 1 mM EGTA, 9 mM NTA, 1.085 mM CaCl2, 5.54 mM MgCl2, and 10 mM HEPES (pH 7.2) and a bath solution of 144 mM KCl, 2 mM CaCl2, 1 mM MgCl2, 0.01% (w/v) BSA and 10 mM HEPES (pH=7.4). Current traces were recorded from cells containing human Ca^2+-activated, intermediate conductance potassium channels after application of voltage ramps (−100 mV to +100 mV, 200 ms duration).

| Compound | T Cell Proliferation (T cells; test compound 1 μM) [cpm × 10^−3] | T Cell Proliferation (T cells; test compound 5 μM) [cpm × 10^−3] | T Cell Proliferation (T cells; test compound 10 μM) [cpm × 10^−3] | Effect on the Ca^2+-activated potassium current [1] |
| --- | --- | --- | --- | --- |
| Clc1ccccc1C(c1ccccc1)(c1ccccc1)n1ccnc1 [Clotrimazole, 1-[(2-chlorophenyl)-diphenyl-methyl]-1H-imidazole] | 5.8 | 4.2 | 1.8 | inhibition of the Ca^2+-activated potassium current |
| CCOC(=O)C1=C(C)NC(C)=C(C(=O)OC)C1c1cccc([N+](=O)[O-])c1 (stereo not shown) [Nitrendipine, 1,4-dihydro-2,6-dimethyl-4-(3-nitrophenyl)pyridine-3,5-dicarboxylic acid ethyl methyl ester] | 5.6 | 3.8 | 4.0 |  |
